From PMC7730441, “Acetylcholinesterase and butyrylcholinesterase inhibitory activities of khellactone coumarin derivatives isolated from Peucedanum japonicum Thurnberg” (Scientific Reports, 2020)
In brackets after ≈: the same amount, converted by molar mass. Where two headings read alike, the source gives them in different places.

Columns and labels:
AChE = conditions: cited from earlier work
recombinant human MAO-A = molecular target: T1, recombinant human MAO-A (Homo sapiens, UniProt P21397); assay: MAO-A inhibition assay (kynuramine); type: biochemical; conditions: read-out: Residual activity at 10 µM (%) MAO-A
T1 construct: purchased Sigma-Aldrich
T1 sequence (P21397 1-527): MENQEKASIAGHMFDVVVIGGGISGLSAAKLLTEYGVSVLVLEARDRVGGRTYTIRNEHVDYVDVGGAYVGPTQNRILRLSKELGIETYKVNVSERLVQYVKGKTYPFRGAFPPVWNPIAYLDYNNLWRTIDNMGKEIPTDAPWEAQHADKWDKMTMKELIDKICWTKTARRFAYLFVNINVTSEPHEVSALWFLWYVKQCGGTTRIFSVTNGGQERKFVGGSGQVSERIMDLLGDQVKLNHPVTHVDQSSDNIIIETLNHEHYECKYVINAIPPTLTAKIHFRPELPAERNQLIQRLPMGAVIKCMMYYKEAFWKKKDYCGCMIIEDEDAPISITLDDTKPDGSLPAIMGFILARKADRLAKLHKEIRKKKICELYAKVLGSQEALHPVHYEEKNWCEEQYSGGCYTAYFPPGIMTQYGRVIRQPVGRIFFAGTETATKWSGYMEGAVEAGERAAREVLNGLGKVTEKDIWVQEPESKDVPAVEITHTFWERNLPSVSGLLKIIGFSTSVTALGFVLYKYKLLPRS
Procedure: (§1) AChE assays were performed as described by Ellman et al.[41] with slight modifications. […] DTNB was used for color development, caused by reaction between it and thiocholine (a product of AChE). For inhibitory assays, compounds were preincubated with AChE for 15 min prior to ATCI and DTNB addition. BChE activity was assayed using the same method, but BTCI was used instead of ATCI.
(§2) Inhibitions of the activities of AChE, BChE, MAO-A, and MAO-B by the 15 compounds were investigated at an inhibitor concentration of 10 µM. IC50 values were also determined. […] The inhibition types and Ki values were determined using Lineweaver–Burk Plots and secondary plots.

BChE (from equine serum) = molecular target: T2, BChE (from equine serum) (Equus caballus, UniProt P81908); assay: biochemical; conditions: 15 min preincubation
T2 construct: BChE (from equine serum); purchased Sigma-Aldrich; host or cells: equine serum
Procedure: as §1, §2

[1] = molecular target: T3, AChE (Type VI-S; from Electrophorus electricus) (Electrophorus electricus, UniProt O42275); assay: biochemical; conditions: for remaining activity at 10 µM: read-out: Residual activity at 10 µM (%) AChE, inhibitor 10 µM; for SI = IC50 of AChE/ IC50 of BChE: selectivity index
T3 construct: AChE (Type VI-S; from Electrophorus electricus); purchased Sigma-Aldrich Type VI-S (catalogue number not given)
Procedure: as §1, §2

recombinant human MAO-B = molecular target: T4, recombinant human MAO-B (Homo sapiens, UniProt P27338); assay: MAO-B inhibition assay (benzylamine); type: biochemical; conditions: read-out: Residual activity at 10 µM (%) MAO-B
T4 construct: purchased Sigma-Aldrich
T4 sequence (P27338 1-520): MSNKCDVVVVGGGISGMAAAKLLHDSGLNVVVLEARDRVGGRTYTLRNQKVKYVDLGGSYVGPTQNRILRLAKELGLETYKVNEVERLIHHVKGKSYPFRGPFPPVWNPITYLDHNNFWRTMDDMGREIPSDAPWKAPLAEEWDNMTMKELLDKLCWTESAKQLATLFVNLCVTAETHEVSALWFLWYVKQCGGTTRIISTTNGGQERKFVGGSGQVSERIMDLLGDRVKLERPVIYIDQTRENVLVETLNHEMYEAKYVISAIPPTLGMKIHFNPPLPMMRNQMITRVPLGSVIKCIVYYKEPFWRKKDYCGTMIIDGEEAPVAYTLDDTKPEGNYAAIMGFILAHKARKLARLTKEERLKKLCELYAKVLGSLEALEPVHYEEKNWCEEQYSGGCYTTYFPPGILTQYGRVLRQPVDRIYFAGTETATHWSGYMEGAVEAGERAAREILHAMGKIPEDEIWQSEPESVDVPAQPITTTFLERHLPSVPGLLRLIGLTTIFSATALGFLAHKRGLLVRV
Procedure: as §1, §2

BChE = conditions: cited from earlier work
[2] = 15 min preincubation, read-out: IC50 (µM) AChE
[3] = verbascosides from Harpagophytum procumbens
[4] = flavonoids from Agrimonia pilosa

T2 sequence (P81908 whole entry): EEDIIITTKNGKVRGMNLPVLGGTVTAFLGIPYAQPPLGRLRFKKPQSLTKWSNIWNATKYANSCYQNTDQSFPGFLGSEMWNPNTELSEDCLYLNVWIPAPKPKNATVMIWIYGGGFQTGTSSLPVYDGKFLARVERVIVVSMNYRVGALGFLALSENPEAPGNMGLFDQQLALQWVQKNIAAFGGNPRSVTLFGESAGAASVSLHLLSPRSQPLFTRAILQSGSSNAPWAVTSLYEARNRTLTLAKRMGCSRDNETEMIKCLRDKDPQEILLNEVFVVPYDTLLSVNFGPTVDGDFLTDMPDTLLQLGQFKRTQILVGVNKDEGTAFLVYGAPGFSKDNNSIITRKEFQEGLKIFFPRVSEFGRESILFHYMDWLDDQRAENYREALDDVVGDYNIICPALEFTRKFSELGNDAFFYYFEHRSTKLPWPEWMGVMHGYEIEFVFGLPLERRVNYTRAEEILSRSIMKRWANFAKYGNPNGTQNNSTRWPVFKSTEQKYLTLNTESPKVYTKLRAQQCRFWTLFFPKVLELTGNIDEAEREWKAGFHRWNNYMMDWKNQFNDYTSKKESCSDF
T3 sequence (O42275 24-633): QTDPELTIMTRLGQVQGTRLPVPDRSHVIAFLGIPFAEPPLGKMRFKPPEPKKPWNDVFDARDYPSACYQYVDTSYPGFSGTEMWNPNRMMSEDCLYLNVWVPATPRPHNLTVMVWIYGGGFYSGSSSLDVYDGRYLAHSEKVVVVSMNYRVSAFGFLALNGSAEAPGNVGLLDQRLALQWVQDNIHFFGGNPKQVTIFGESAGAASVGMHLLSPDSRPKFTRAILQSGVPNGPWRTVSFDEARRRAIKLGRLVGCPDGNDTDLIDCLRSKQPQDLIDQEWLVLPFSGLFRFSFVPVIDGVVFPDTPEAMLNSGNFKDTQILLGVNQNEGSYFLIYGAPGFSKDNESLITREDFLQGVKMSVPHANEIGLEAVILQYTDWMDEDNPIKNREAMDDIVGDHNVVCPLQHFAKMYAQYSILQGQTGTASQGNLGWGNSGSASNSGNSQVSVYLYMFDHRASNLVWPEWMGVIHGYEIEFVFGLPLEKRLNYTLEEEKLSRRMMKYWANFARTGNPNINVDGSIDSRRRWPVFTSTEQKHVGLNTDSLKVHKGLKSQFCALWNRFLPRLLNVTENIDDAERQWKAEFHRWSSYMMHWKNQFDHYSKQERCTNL

Molecule | remaining activity at 10 µM (recombinant human MAO-A; inhibitor 10 µM) | IC50 (BChE (from equine serum); read-out: IC50 (µM) BChE) | IC50 [1, 2] | remaining activity at 10 µM ([1]; 15 min preincubation) | remaining activity at 10 µM (recombinant human MAO-B; inhibitor 10 µM) | also measured
COC(C)(C)[C@H](O)CCC(C)=CCOc1c2ccoc2cc2oc(=O)ccc12 [(R)-( +)-6′-hydroxy-7′-methoxybergamottin] |  |  |  |  |  | IC50 (AChE; from Citrus hystrix): 11.2 µM
CC(=O)O[C@@H]1[C@H](OC(=O)C=C(C)C)c2c(ccc3ccc(=O)oc23)OC1(C)C [PJ1, Isosamidin] | 86 ± 5.47% | > 40 µM | > 40 µM | 92.1 ± 1.7% | 85 ± 0.57% | 
CCC(C)C(=O)O[C@@H]1c2c(ccc3ccc(=O)oc23)OC(C)(C)[C@@H]1OC(C)=O (stereo partly drawn) [PJ3, hyuganin] | 81.2 ± 3.68% | > 40 µM | > 40 µM | 97.2 ± 8.3% | 83.7 ± 2.33% | 
CC(C)=CC(=O)O[C@@H]1c2c(ccc3ccc(=O)oc23)OC(C)(C)[C@@H]1OC(=O)C=C(C)C [PJ4, 3′,4′-disenecioylkhellactone] | 100.3 ± 0.39% | 10.7 µM | 21.3 ± 7.69 µM | 85.4 ± 7.52% | 95.6 ± 4.8% | SI = IC50 of AChE/ IC50 of BChE [1]: 1.99
C/C=C(/C)C(=O)O[C@@H]1[C@H](OC(=O)C=C(C)C)c2c(ccc3ccc(=O)oc23)OC1(C)C [PJ6, calipteryxin] | 86.1 ± 1.93% | > 40 µM | 25.6 ± 4.5 µM | 76.3 ± 6.46% | 63.1 ± 2.75% | SI = IC50 of AChE/ IC50 of BChE [1]: < 0.64
C/C=C(/C)C(=O)O[C@@H]1c2c(ccc3ccc(=O)oc23)OC(C)(C)[C@@H]1OC(=O)/C(C)=C\C [PJ7, anomalin] |  |  |  | 75.4 ± 5.72% |  | remaining activity at 10 µM (recombinant human MAO-A): 74 ± 1.16%; IC50 (BChE (from equine serum); IC50 (µM) BChE): > 40 µM; IC50 [1]: 17.9 ± 5.59 µM; SI = IC50 of AChE/ IC50 of BChE [1]: < 0.45; remaining activity at 10 µM (recombinant human MAO-B): 73.8 ± 8.23%
CC(C)=CC(=O)O[C@@H]1[C@H](OC(=O)CC(C)C)c2c(ccc3ccc(=O)oc23)OC1(C)C [PJ8, 3′-senecioyl-4′-isovalerylkhellactone] | 79.5 ± 2.05% | > 40 µM | 31.6 ± 4.4 µM | 97 ± 1.4% | 68.5 ± 2.1% | SI = IC50 of AChE/ IC50 of BChE [1]: < 0.79
CC(C)=CC(=O)O[C@@H]1c2c(ccc3ccc(=O)oc23)OC(C)(C)[C@@H]1OC(=O)CC(C)C [PJ9, 3′-isovaleryl-4′-senecioylkhellactone] | 80.6 ± 5.02% | 12.5 ± 2.82 µM | 36.1 ± 0.66 µM | 86.9 ± 9.92% | 75 ± 8.42% | SI = IC50 of AChE/ IC50 of BChE [1]: 2.89
CCC(C)C(=O)O[C@@H]1c2c(ccc3ccc(=O)oc23)OC(C)(C)[C@@H]1OC(=O)C=C(C)C (stereo partly drawn) [PJ10, 3′-senecioyl-4′-(2-methylbutyryl)khellactone] | 92.1 ± 5.58% | 10.2 µM | > 40 µM | 86.4 ± 5.23% | 70.9 ± 2.61% | SI = IC50 of AChE/ IC50 of BChE [1]: > 3.92
C/C=C(/C)C(=O)OC1c2c(ccc3ccc(=O)oc23)OC(C)(C)C1OC(=O)CC(C)C (stereo not drawn) [PJ11, 3′-isovaleryl-4′-angeloylkhellactone] | 75.4 ± 0.3% | > 40 µM | > 40 µM | 88.1 ± 1.35% | 89.1 ± 1.36% | 
C/C=C(/C)C(=O)O[C@@H]1c2c(ccc3ccc(=O)oc23)OC(C)(C)[C@@H]1OC(=O)C(C)CC (stereo partly drawn) [PJ12] | 78.9 ± 3.98% | > 40 µM | 29 ± 1.15 µM | 58.3 ± 5.37% | 72.4 ± 3.7% | SI = IC50 of AChE/ IC50 of BChE [1]: < 0.73
CC(C)CC(=O)O[C@@H]1c2c(ccc3ccc(=O)oc23)OC(C)(C)[C@@H]1OC(=O)CC(C)C [PJ14, 3′,4′-diisovalerylkhellactone] | 77 ± 5.4% | > 40 µM | 28.1 ± 0.33 µM | 51.5 ± 4.5% | 66.1 ± 5.23% | SI = IC50 of AChE/ IC50 of BChE [1]: < 0.70
C[C@@H]1O[C@@H](O[C@@H]2[C@@H](O)[C@H](OCCc3ccc(O)c(O)c3)O[C@H](CO)[C@H]2OC(=O)/C=C/c2ccc(O)c(O)c2)[C@H](O)[C@H](O)[C@H]1O [acteoside] |  |  |  |  |  | IC50 (AChE; [3]): 19.9 µM
COc1ccc(CCCc2ccc(O)cc2)c(O)c1 [broussonin A] |  |  |  |  |  | IC50 (BChE; from Anemarrhena asphodeloidesa): 7.5 µM
C[C@@H]1O[C@@H](O[C@@H]2[C@@H](O)[C@H](OCCc3ccc(O)c(O)c3)O[C@H](CO)[C@H]2O)[C@H](O)[C@H](O)[C@H]1O [decaffeoylverbascoside] |  |  |  |  |  | IC50 (AChE; [3]): 16.1 µM
CC1(C)Oc2cc3oc(=O)ccc3cc2C[C@@H]1O [decursinol] |  |  |  |  |  | IC50 (AChE; from Angelica gigas Nakai): 28 µM
COc1ccc2c(c1OC)CN1CCc3cc4c(cc3C1=C2)OCO4 [dihydroberberine] |  |  |  |  |  | IC50 (AChE): 1.18 µM
CCC(C)C(=O)O[C@@H]1c2c(ccc3ccc(=O)oc23)OC(C)(C)[C@@H]1OC(C)=O (stereo partly drawn) [hyuganin C] |  |  |  |  |  | IC50 (BChE; from Mutellina purpurea): 38.9 µM
C[C@@H]1O[C@@H](O[C@@H]2[C@@H](O)[C@H](OCCc3ccc(O)c(O)c3)O[C@H](COC(=O)/C=C/c3ccc(O)c(O)c3)[C@H]2O)[C@H](O)[C@H](O)[C@H]1O [isoacteoside] |  |  |  |  |  | IC50 (BChE; from H. procumbens): 29.7 µM
O=c1c(O)c(-c2ccc(O)cc2)oc2cc(O)cc(O)c12 [kaempferol] |  |  |  |  |  | IC50 (BChE; from Cleistocalyx operculatus): 62.5 µM
CC1=C2OCC(C)c3ccc(C)c(c32)C(=O)C1=O (stereo not drawn) [mansonone E] |  |  |  |  |  | IC50 (AChE; from Mansonia gagei): 23.5 µM
CCC(C)C(=O)c1c(O)c2c(c3c(-c4ccccc4)cc(=O)oc13)OC(C)(CCC=C(C)C)C=C2 (stereo not drawn) [mesuagenin B] |  |  |  |  |  | IC50 (AChE; from Mesua elegans): 0.7 µM
COc1cc2ccc(=O)oc2cc1O [scopoletin] |  |  |  |  |  | IC50 (AChE; from Vaccinium oldhami Miquel): 52 µM
COc1cc2oc(-c3ccc(O)cc3)cc(=O)c2c(O)c1[C@@H]1O[C@H](CO)[C@@H](O)[C@H](O)[C@H]1O [swertisin, isovitexin-7-O-methyl ether] |  |  |  |  |  | IC50 (AChE; converted from µg/mL, from Anthocleista vogelii): 71.9 µM; IC50 AChE (AChE; from Anthocleista vogelii): 32.09 mg/L (≈ 71.9 µM)
O=C(/C=C/c1ccc(O)cc1)OC[C@H]1O[C@@H](Oc2c(-c3ccc(O)cc3)oc3cc(O)cc(O)c3c2=O)[C@H](O)[C@@H](O)[C@@H]1O [tiliroside] |  |  |  |  |  | IC50 (AChE; [4]): 23.5 µM
corenone B |  |  |  |  |  | IC50 (BChE; converted from μg/mL, from Niphogeton dissecta): 49.5 µM; IC50 BChE (BChE; from Niphogeton dissecta): 10.9 mg/L
